According to patent US20250333424A1, “ANTIVIRAL COMPOUNDS” (Gilead Sciences, Inc., priority 2024, published 2025):
pEC50: −log10 of the molar value.

Each molecule was assayed on monocytic THP1 cells infected with HIV VSV-G pseudotyped GFP-NEF reporter virus (assay: cells). Settings: Human immunodeficiency virus 1, THP-1, 24 h.
Format: cell-based

SMILES	pEC50
Cc1cc(/C=C/C#N)cc(C)c1Oc1nc(NC23CC(C#N)(C2)C3)nc2c1C(O)(CF)NC2=O (centres unmarked) [Compound 265, (E)-3-((4-(4-(2-cyanovinyl)-2,6-dimethylphenoxy)-5-(fluoromethyl)-5-hydroxy-7-oxo-6,7-dihydro-5H-pyrrolo[3,4-d]pyrimidin-2-yl)amino)bicyclo[1.1.1]pentane-1-carbonitrile]	7.06
Cc1cc(/C=C/C#N)cc(C)c1Oc1nc(NC23CC(C#N)(C2)C3)nc2c1[C@H](C)N(C1CC1)C2=O [Compound 181, (S,E)-3-((4-(4-(2-cyanovinyl)-2,6-dimethylphenoxy)-6-cyclopropyl-5-methyl-7-oxo-6,7-dihydro-5H-pyrrolo[3,4-d]pyrimidin-2-yl)amino)bicyclo[1.1.1]pentane-1-carbonitrile]	7.69
Cc1cc(/C=C/C#N)cc(C)c1Nc1nc(NC23CC(C#N)(C2)C3)nc2nn(C)cc12 [Example 237, 3-[[4-[4-[(E)-2-cyanovinyl]-2,6-dimethyl-anilino]-2-methyl-pyrazolo[3,4-d]pyrimidin-6-yl]amino]bicyclo[1.1.1]pentane-1-carbonitrile]	6.92
Cc1cc(/C=C/C#N)cc(C)c1Oc1nc(NC23CC(C#N)(C2)C3)nc2nn(C3CCOCC3)cc12 [Compound 127, 3-[[4-[4-[(E)-2-cyanovinyl]-2,6-dimethyl-phenoxy]-2-tetrahydropyran-4-yl-pyrazolo[3,4-d]pyrimidin-6-yl]amino]bicyclo[11.1.1]pentane-1-carbonitrile]	6.83
Cc1cc(/C=C/C#N)cc(C)c1Oc1nc(NC23CC(C#N)(C2)C3)nc2nc3n(c12)CCCO3 (single isomer, unassigned) [Compound 182, (E)-3-((4-(4-(2-cyanovinyl)-2,6-dimethylphenoxy)-7,8-dihydro-6H-[1,3]oxazino[2,3-f]purin-2-yl)amino)bicyclo[1.1.1]pentane-1-carbonitrile]	7.47
CCNc1nc2nc(NC34CC(C#N)(C3)C4)nc(Oc3c(C)cc(/C=C/C#N)cc3C)c2[nH]1 [Compound 47, (E)-3-((6-(4-(2-cyanovinyl)-2,6-dimethylphenoxy)-8-(ethylamino)-7H-purin-2-yl)amino)bicyclo[1.1.1]pentane-1-carbonitrile]	6.93
Cc1cc(/C=C/C#N)cc(C)c1Oc1nc(NC23CC(C#N)(C2)C3)nc2nc(-c3ccn(C)n3)n(C(F)F)c12 [Compound 177, (E)-3-((6-(4-(2-cyanovinyl)-2,6-dimethylphenoxy)-7-(difluoromethyl)-8-(1-methyl-1H-pyrazol-3-yl)-7H-purin-2-yl)amino)bicyclo[1.1.1]pentane-1-carbonitrile]	7.34
CCc1nc2nc(NC34CC(C#N)(C3)C4)nc(Oc3c(C)cc(/C=C/C#N)cc3C)c2n1C(F)F [Compound 17, (E)-3-((6-(4-(2-cyanovinyl)-2,6-dimethylphenoxy)-7-(difluoromethyl)-8-ethyl-7H-purin-2-yl)amino)bicyclo[1.1.1]pentane-1-carbonitrile]	7.67
Cc1cc(/C=C/C#N)cc(C)c1Oc1nc(NC23CC(C#N)(C2)C3)nc2snc(C)c12 [Compound 296, (E)-3-((4-(4-(2-cyanovinyl)-2,6-dimethylphenoxy)-3-methylisothiazolo[5,4-d]pyrimidin-6-yl)amino)bicyclo[1.1.1]pentane-1-carbonitrile]	7.23
Cc1cc(/C=C/C#N)cc(C)c1Oc1nc(NC23CC(C#N)(C2)C3)nc2[nH]c(=O)n(C)c12 [Compound 24, (E)-3-((6-(4-(2-cyanovinyl)-2,6-dimethylphenoxy)-7-methyl-8-oxo-8,9-dihydro-7H-purin-2-yl)amino)bicyclo[1.1.1]pentane-1-carbonitrile]	7.49
Cc1cc(/C=C/C#N)cc(C)c1Oc1nc(NC23CC(C#N)(C2)C3)nc2c1[C@H](C)NC2=O [Compound 138, 3-[[(5S)-4-[4-[(E)-2-cyanovinyl]-2,6-dimethyl-phenoxy]-5-methyl-7-oxo-5,6-dihydropyrrolo[3,4-d]pyrimidin-2-yl]amino]bicyclo[1.1.1]pentane-1-carbonitrile]	7.74
Cc1cc(/C=C/C#N)cc(C)c1Oc1nc(NC23CC(C#N)(C2)C3)nc2nn(CC(F)(F)F)c(C)c12 [Compound 84, (E)-3-((4-(4-(2-cyanovinyl)-2,6-dimethylphenoxy)-3-methyl-2-(2,2,2-trifluoroethyl)-2H-pyrazolo[3,4-d]pyrimidin-6-yl)amino)bicyclo[1.1.1]pentane-1-carbonitrile]	6.43
Cc1cc(/C=C/C#N)cc(C)c1Oc1nc(NC23CC(C#N)(C2)C3)nc2c1C(C)N(Cc1nccn1C)C2=O (centres unmarked) [Example 213, (E)-3-((4-(4-(2-cyanovinyl)-2,6-dimethylphenoxy)-5-methyl-6-((1-methyl-1H-imidazol-2-yl)methyl)-7-oxo-6,7-dihydro-5H-pyrrolo[3,4-d]pyrimidin-2-yl)amino)bicyclo[1.1.1]pentane-1-carbonitrile]	7.36
C=C1c2c(Oc3c(C)cc(/C=C/C#N)cc3C)nc(NC34CC(C#N)(C3)C4)nc2C(=O)N1CCCCO [Compound 270, (E)-3-((4-(4-(2-cyanovinyl)-2,6-dimethylphenoxy)-6-(4-hydroxybutyl)-5-methylene-7-oxo-6,7-dihydro-5H-pyrrolo[3,4-d]pyrimidin-2-yl)amino)bicyclo[1.1.1]pentane-1-carbonitrile]	7.72
Cc1cc(/C=C/C#N)cc(C)c1Oc1nc(NC23CC(C#N)(C2)C3)nc2c1[C@@]1(C)O[C@@H]3CC[C@@H]3N1C2=O (single isomer, unassigned) [Compound 283]	7.35
Cc1cc(/C=C/C#N)cc(C)c1Oc1nc(NC23CC(C#N)(C2)C3)nc2c1C1(C)O[C@H](C)CCN1C2=O (single isomer, unassigned) [Example 242]	7.44
Cc1cc(/C=C/C#N)cc(C)c1Oc1nc(NC23CC(C#N)(C2)C3)nc2c1CNC2=O [Compound 153, (E)-3-((4-(4-(2-cyanovinyl)-2,6-dimethylphenoxy)-7-oxo-6,7-dihydro-5H-pyrrolo[3,4-d]pyrimidin-2-yl)amino)bicyclo[1.1.1]pentane-1-carbonitrile]	7.56
Cc1cc(/C=C/C#N)cc(C)c1Oc1nc(NC23CC(C#N)(C2)C3)nc2c(=O)n(C)[nH]c12 [Compound 290, (E)-3-((7-(4-(2-cyanovinyl)-2,6-dimethylphenoxy)-2-methyl-3-oxo-2,3-dihydro-1H-pyrazolo[4,3-d]pyrimidin-5-yl)amino)bicyclo[1.1.1]pentane-1-carbonitrile]	6.41
Cc1cc(/C=C/C#N)cc(C)c1Oc1nc(NC23CC(C#N)(C2)C3)nc2c1C(C)N(c1c(C)nn(C)c1C)C2=O (centres unmarked) [Example 220, (E)-3-((4-(4-(2-cyanovinyl)-2,6-dimethylphenoxy)-5-methyl-7-oxo-6-(1,3,5-trimethyl-1H-pyrazol-4-yl)-6,7-dihydro-5H-pyrrolo[3,4-d]pyrimidin-2-yl)amino)bicyclo[1.1.1]pentane-1-carbonitrile]	6.81

What follows are molecules tested on CD4 cells, isolated from healthy donor PMBCs, infected with HIV VSV-G pseudotyped GFP-GAG reporter virus (assay: tissue or blood). Settings: Homo sapiens, 72 h.
Format: cell-based

SMILES	pEC50
CCn1cnc2nc(NC34CC(C#N)(C3)C4)nc(Oc3c(C)cc(/C=C/C#N)cc3C)c21 [Compound 114, (E)-3-((6-(4-(2-cyanovinyl)-2,6-dimethylphenoxy)-7-ethyl-7H-purin-2-yl)amino)bicyclo[1.1.1]pentane-1-carbonitrile]	7.29
COC(=O)N1Cc2nc(NC34CC(C#N)(C3)C4)nc(Oc3c(C)cc(/C=C/C#N)cc3C)c2C1 [Compound 151, (E)-methyl 2-((3-cyanobicyclo[1.1.1]pentan-1-yl)amino)-4-(4-(2-cyanovinyl)-2,6-dimethylphenoxy)-5H-pyrrolo[3,4-d]pyrimidine-6(7H)-carboxylate]	7.12
Cc1nc2nc(NC34CC(C#N)(C3)C4)nc(Oc3c(Cl)cc(/C=C/C#N)cc3Cl)c2[nH]1 [Compound 59, (E)-3-((6-(2,6-dichloro-4-(2-cyanovinyl)phenoxy)-8-methyl-7H-purin-2-yl)amino)bicyclo[1.1.1]pentane-1-carbonitrile]	6.47
Cc1nc2nc(NC34CC(C#N)(C3)C4)nc(Oc3c(F)cc(/C=C/C#N)cc3F)c2[nH]1 [Compound 58, (E)-3-((6-(4-(2-cyanovinyl)-2,6-difluorophenoxy)-8-methyl-7H-purin-2-yl)amino)bicyclo[1.1.1]pentane-1-carbonitrile]	6.37
Cc1cc(/C=C/C#N)cc(C)c1Oc1nc(NC23CC(C#N)(C2)C3)nc2c1COC2 [Compound 117]	7.62
Cc1cc(/C=C/C#N)cc(C)c1Oc1nc(NC23CC(C#N)(C2)C3(F)F)nc2c1CCO2 [Compound 78, (E)-3-((4-(4-(2-cyanovinyl)-2,6-dimethylphenoxy)-5,6-dihydrofuro[2,3-d]pyrimidin-2-yl)amino)-2,2-difluorobicyclo[1.1.1]pentane-1-carbonitrile]	7.92
Cc1cc(/C=C/C#N)cc(C)c1Oc1nc(NC23CC(C#N)(C2)C3)nc2nc[nH]c12 [Compound 44, (E)-3-((6-(4-(2-cyanovinyl)-2,6-dimethylphenoxy)-7H-purin-2-yl)amino)bicyclo[1.1.1]pentane-1-carbonitrile]	6.96
Cc1cc(/C=C/C#N)cc(C)c1Oc1nc(NC23CC(CC(F)F)(C2)C3)nc2nc[nH]c12 [Compound 155, (E)-3-(4-((2-((3-(2,2-difluoroethyl)bicyclo[1.1.1]pentan-1-yl)amino)-7H-purin-6-yl)oxy)-3,5-dimethylphenyl)acrylonitrile]	6.38
Cc1cc(/C=C/C#N)cc(C)c1Oc1nc(NC23CC(C#N)(C2)C3)nc2c1CSC2 [Compound 116, (E)-3-((4-(4-(2-cyanovinyl)-2,6-dimethylphenoxy)-5,7-dihydrothieno[3,4-d]pyrimidin-2-yl)amino)bicyclo[1.1.1]pentane-1-carbonitrile]	7.20
Cc1cc(/C=C/C#N)cc(C)c1Oc1nc(NC23CC(C#N)(C2)C3)nc2nc(C(C)(F)F)n(C)c12 [Compound 41, (E)-3-((6-(4-(2-cyanovinyl)-2,6-dimethylphenoxy)-8-(1,1-difluoroethyl)-7-methyl-7H-purin-2-yl)amino)bicyclo[1.1.1]pentane-1-carbonitrile]	7.11
